# Results reported in the RepoRT retention time repository (doi:10.1016/j.aca.2011.12.065).
# Where a name gives a salt, the structure may show the parent alone.
# Assay: RP, Waters ACQUITY UPLC BEH C18, 100 × 2.1 mm, 1.7 µm; A: water + 0.1% formic acid, pH 3; B: 80% acetonitrile + 20% acetone + 0.1% formic acid, pH 3; gradient (min/%B) 0/0 6/100
# Settings: stereoisomer not certain
row,Compound,LC retention time
1,CC(C)CC(=O)C(=O)O [2-Oxo-4-methylpentanoic acid],1.99 min
2,Nc1ccc(O)cc1 [4-aminophenol],0.641 min
3,CC12C=CC(=O)C=C1CCC1C2C(O)CC2(C)C1CCC2(O)C(=O)CO (stereo unspecified) [Prednisolone],2.65 min
4,CC[C@@H](O)C(=O)[O-] [(R)-2-hydroxybutyric acid],1.4 min
5,CC(C)CC1NC(=O)C(C)NC1=O (stereo unspecified) [Cyclic(ala-leu)],1.86 min
6,CCC(C)C1NC(=O)C(CCC(=O)O)NC1=O (stereo unspecified) [Cyclic(glu-ile)],1.71 min
7,CC(O)C(C)C(=O)O (stereo unspecified) [3-Hydroxy-2-methylbutyric acid],1.51 min
8,CCCCCCCCCCCCCCCC(=O)OCC(COP(=O)([O-])OCC[N+](C)(C)C)OC(=O)CCCC=O (stereo unspecified) [POV-PC 10 ug/ml],4.66 min
9,CCC(C)C1NC(=O)C(CC(=O)O)NC1=O (stereo unspecified) [Cyclic(asp-ile)],1.65 min
10,CS(=O)CCC(N)C(=O)O (stereo not drawn) [dl methine sulfoxide],0.596 min
11,O=C(O)CNC(=O)c1cccnc1 [Nicotinuric acid],1.35 min
12,CC(CO)C(=O)O (stereo not drawn) [beta-hydroxyisobutyric acid],1.4 min
13,CCC=CCC=CCC=CCC=CCC=CCCCC(=O)OCC(O)COP(=O)([O-])OCC[N+](C)(C)C (stereo unspecified) [LPC(20:5)_enz],4.02 min
14,CCC(C)C1NC(=O)C(C(C)C)NC1=O (stereo unspecified) [Cyclic(ile-val)],2.31 min
15,CCC(C)C(NC(=O)C(N)CC(=O)O)C(=O)O (stereo unspecified) [asp-ile],0.6 min
16,CCC(C)C(NC(=O)C1CCC(=O)N1)C(=O)O (stereo unspecified) [pglu-ile],1.83 min
17,COc1cc(C(=O)O)cc(OC)c1O [syringic acid],1.79 min

row,Compound,LC retention time
1,CCCCCC=CCC=CCCCCCCCC(=O)OCC(O)COP(=O)([O-])OCC[N+](C)(C)C (stereo unspecified) [LPC(18:2)_enz],4.25 min
2,CC(C)C(=O)C(=O)O [Alpha-ketoisovaleric acid],1.45 min
3,CC(O)C1CCC2C3CCC4CC(=O)CCC4(C)C3CCC12C (stereo not drawn) [20-beta-Hydroxy-5-alpha-pregnan-3-one],4.33 min
4,CCC(C)C1NC(=O)C(C)NC1=O (stereo unspecified) [Cyclic(ala-ile)],1.8 min
5,O=C(O)Cc1c[nH]c2ccc(O)cc12 [5-hydroxyindole-3-acetic acid],1.61 min
6,CCC(C)(O)C(=O)O (stereo unspecified) [2-Hydroxy-2-methylbutyric acid],1.63 min
7,O=C(O)CCCO [gamma-hydroxybutyric acid],1.07 min
8,CC(C)CC(NC(=O)C1CCC(=O)N1)C(=O)O (stereo unspecified) [pglu-leu],1.89 min
9,CCC(=O)OC(CC(=O)[O-])C[N+](C)(C)C (stereo unspecified) [propionylcarnitine chloride],1.35 min
10,O=C(O)CC(NC(=O)C1CCC(=O)N1)C(=O)O (stereo unspecified) [pglu-asp],0.6 min
11,CC(C)CC(NC(=O)C(N)CC(=O)O)C(=O)O (stereo unspecified) [asp-leu],0.6 min
12,CC(C)C(NC(=O)C(N)CCC(=O)O)C(=O)O (stereo unspecified) [glu-val],1.32 min
13,Cc1ncc(C[n+]2csc(CCOP(=O)(O)O)c2C)c(N)n1 [Thiamine monophosphate Cloride dihydrat],0.595 min
14,CCC=CCC=CCC=CCC=CCC=CCCCC(=O)OCC(COP(=O)([O-])OCC[N+](C)(C)C)OC(=O)CCCC=CCC=CCC=CCC=CCC=CCC (stereo unspecified) [PC(20:5/20:5)],5.62 min
15,CC(C)C(O)C(=O)O (stereo unspecified) [2-Hydroxy-3-methylbutyric acid],1.69 min
16,CC(C)CC(NC(=O)CC(N)C(=O)O)C(=O)O (stereo not drawn) [beta-asp-leu],0.6 min
17,CC(C)C(N)C(=O)O (stereo unspecified) [Valine],0.798 min

# Results, then the compound that gave them:
row,LC retention time,Compound
1,3.04 min,CC12CCC(=O)C=C1CCC1C2CCC2(C)C1CCC2(O)C(=O)CO (stereo unspecified) [11-Deoxy-17-hydroxycorticosterone]
2,1.62 min,CCCC(=O)C(=O)O [2-Oxovaleric acid]
3,1.54 min,NC(Cc1ccccc1)C(=O)NC(CC(=O)O)C(=O)O (stereo unspecified) [phe-asp]
4,1.02 min,"OCC(O)c1ccc(O)c(O)c1 (stereo unspecified) [3,4-dihydroxyphenyl glycol]"
5,1.63 min,CC(C)C(NC(=O)C(N)Cc1ccccc1)C(=O)O (stereo unspecified) [Phe-Val]
6,4.66 min,CCCCCCCCCCCCCCCC(=O)OCC(COP(=O)([O-])OCC[N+](C)(C)C)OC(=O)CCCCCCCC(=O)O (stereo unspecified) [PAZ-PC]
7,1.5 min,CC(C)C1NC(=O)C(CCC(=O)O)NC1=O (stereo unspecified) [Cyclic(glu-val)]
8,1.78 min,CC(O)CC(=O)[O-] (stereo not drawn) [beta-hydroxybutyric acid]
9,3.84 min,CC(CCC(=O)NCCS(=O)(=O)O)C1CCC2C3CCC4CC(O)CCC4(C)C3CCC12C (stereo unspecified) [taurolithocholic acid]
10,1.34 min,Nc1ccccc1C(=O)CC(N)C(=O)O (stereo not drawn) [l-kynurenine]
11,0.6 min,CCC(C)C(N)C(=O)NC(CC(=O)O)C(=O)O (stereo unspecified) [ile-asp]
12,3.19 min,CC12CCc3occc3C1CCC13CC(CCC12)C(O)(CO)C3 (stereo unspecified) [Cafestol (10x dilute)]
13,4.52 min,CCCCCCCCCCCCCCCC(=O)OCC(COP(=O)([O-])OCC[N+](C)(C)C)OC(=O)CCCC(=O)O (stereo unspecified) [PGPC]
14,0.884 min,O=C(O)CCC1NC(=O)C(CC(=O)O)NC1=O (stereo unspecified) [Cyclic(asp-glu)]
15,2.39 min,CC(C)C1NC(=O)C(Cc2ccccc2)NC1=O (stereo unspecified) [Cyclic(phe-val)]
16,0.6 min,CCC(C)C(NC(=O)CC(N)C(=O)O)C(=O)O (stereo not drawn) [beta-asp-ile]
17,4.95 min,CCCCCCCCCCCCCCCCC=COCC(O)COP(=O)([O-])OCC[N+](C)(C)C (stereo unspecified)
18,1.61 min,CC(=O)C(C)C(=O)O (stereo unspecified) [2-methylacetoacetic acid]

row,LC retention time,Compound
1,1.86 min,CCC(C)C(=O)C(=O)O (stereo unspecified) [2-Oxo-3-methylpentanoic acid]
2,2.41 min,COc1ccc(O)c(C(=O)O)c1 [5-methoxysalicylic acid]
3,1.74 min,CC(C)C1NC(=O)C2CCCN2C1=O (stereo unspecified) [Cyclic(pro-val)]
4,0.6 min,CC(C)CC(N)C(=O)NC(CC(=O)O)C(=O)O (stereo unspecified) [leu-asp]
5,1.4 min,CC(C)(O)C(=O)O [alpha-hydroxyisobutyric acid]
6,1.57 min,CC(C)C(NC(=O)C1CCC(=O)N1)C(=O)O (stereo unspecified) [pglu-val]
7,2.13 min,O=C(O)CNC(=O)C=Cc1c[nH]c2ccccc12 [INDOLE-3-ACRYLOYLGLYCINE]
8,0.58 min,CNC(CC(=O)O)C(=O)O (stereo unspecified) [N-methyl-aspartic acid]
9,4.86 min,CCCCCCCCCCCCCCCCOCC(COP(=O)([O-])OCC[N+](C)(C)C)OC(=O)CCCCCCCC(=O)O (stereo unspecified) [Azelaoyl PAF 10 ug/ml]
10,2.27 min,O=Cc1c[nH]c2ccccc12 [indole-3-carbaldehyde]
11,0.6 min,CC(O)C(NC(=O)C1CCCN1)C(=O)O (stereo unspecified) [pro-thr]
12,0.906 min,CC(C)C(N)C(=O)NC(CCC(=O)O)C(=O)O (stereo unspecified) [val-glu]
13,1.69 min,"O=C(O)CCc1ccc(O)c(O)c1 [3,4-dihydroxyhydrocinnamic acid]"
14,1.68 min,CC(C)CC1NC(=O)C(CC(=O)O)NC1=O (stereo unspecified) [Cyclic(asp-leu)]
15,1.7 min,CC(C)C(N)C(=O)NC(Cc1ccccc1)C(=O)O (stereo unspecified) [Val-Phe]
16,0.641 min,Nc1ccc(OS(=O)(=O)O)cc1 [4-Aminophenyl hydrogen sulfate]
17,1.43 min,O=C(O)CCC1NC(=O)C2CCCN2C1=O (stereo unspecified) [Cyclic(glu-pro)]

# Assay: RP, Waters ACQUITY UPLC HSS T3, 100 × 2.1 mm, 1.8 µm; A: water + 0.1% formic acid, pH 3; B: 30% methanol + 70% acetonitrile + 0.1% formic acid, pH 3; gradient (min/%B) 0.0/5 1.0/8 2.0/15 3.0/40 4.0/70 4.5/100 5.0/100 6.4/100 6.6/5.0 6.8/5.0 7.0/5.0
# Settings: stereoisomer not certain
row,Compound,LC retention time
1,CC(C)CC(=O)NCC(=O)O [isovalerylglycine],2.74 min
2,CS(=O)CCCN=C=S (stereo unspecified) [iberin],3.24 min
3,Cc1ccccc1C(=O)NCC(=O)O [2-methylhippuric acid],3.41 min
4,"OCC(O)c1ccc(O)c(O)c1 (stereo unspecified) [3,4-dihydroxyphenylglycol]",0.858 min
5,CCC(C)(O)C(=O)O (stereo unspecified) [2-hydroxy-2-methylbutyric acid],2.23 min
6,Cn1cncc1CC(NC(=O)CCN)C(=O)O (stereo unspecified) [anserine],0.441 min
7,O=C(O)/C=C/c1cccc(O)c1 [trans-3-hydroxycinnamic acid],3.53 min
8,CCCCCCCC(=O)OC1OC(C(=O)O)C(O)C(O)C1O (stereo unspecified) [octanoic acid glucuronide],3.92 min
9,CC12CCC3C(CCC4CC(=O)CCC43C)C1CCC2O (stereo unspecified),4.47 min
10,C[NH+]1CC(O)CC1C(=O)[O-] (stereo unspecified) [n-methyl-4-hydroxyproline],0.498 min
11,NC(=O)NC(NC(N)=O)C(=O)O [allantoic acid],0.491 min
12,O=C(O)c1ccc[nH]1 [pyrrole-2-carboxylic acid],2.61 min

# Continued, values first:
row,LC retention time,Compound
1,0.564 min,CNCC(O)c1ccc(O)c(O)c1 (stereo unspecified) [epinephrine]
2,3.56 min,O=C(O)CNC(=O)C=Cc1c[nH]c2ccccc12 [indole-3-acryloylglycine]
3,0.62 min,O=C(O)C1CCCCN1 (stereo unspecified) [pipecolinic acid]
4,4.34 min,CC(CCC(=O)NCC(=O)O)C1CCC2C3C(O)CC4CC(OC5OC(C(=O)O)C(O)C(O)C5O)CCC4(C)C3CCC12C (stereo unspecified) [glycochenodeoxycholic acid 3-glucuronide]
5,0.524 min,CC(C)(N)C(=O)O [2-aminoisobutyric acid]
6,2.67 min,NC(CC(=O)O)C(=O)NC(Cc1ccccc1)C(=O)O (stereo unspecified) [asp-phe]
7,2.92 min,O=C(O)Cc1c[nH]c2ccc(O)cc12 [5-hydroxyindole-acetic acid]
8,0.546 min,CC(C)C(N)C(=O)O (stereo unspecified) [valine]
9,0.712 min,NCCc1ccc(O)c(O)c1 [dopamine]
10,4.08 min,CCCc1oc(CCC(=O)O)c(C(=O)O)c1C [cmpf]
